Source: publication PMC8511083 (European journal of medicinal chemistry, 2021)

Experiments:
[1] = Liver microsome stability assay, human; conditions: human microsomes, 88 vs 51 min
[2] = system: A375 xenograft tumors; test: A375 subcutaneous melanoma xenograft model in NSG mice; type: in vivo, mouse; conditions: 20 mg/kg IP, 3 times/week, 15 days, end of experiment, vs vehicle
[3] = target: T1, survivin (Homo sapiens, UniProt O15392); test: Western blot of IAPs and cleaved-PARP in A375 cells
[4] = system: OVCAR3 and OVCAR8 cells; test: Average growth inhibition in ovarian cancer cell lines; type: cell-based; conditions: Homo sapiens, read-out: Average IC50
[5] = target: T1, survivin; test: Western blot of survivin in ovarian cancer cells; conditions: OVCAR8, SKOV3 and OVCAR3 cells, 24 hr, 2 and 4 μM
[6] = system: panel of melanoma and breast cancer cell lines; test: Average growth inhibition in panel of melanoma and breast cancer cell lines; type: cell-based; conditions: Homo sapiens, read-out: Average IC50, average of results obtained in all six cell lines
[7] = system: MDA-MB-435/LCC6MDR1; test: In vitro antiproliferative; type: cell-based; conditions: Homo sapiens, 72 h, read-out: IC50 MDA-MB-435/LCC6MDRI
[8] = system: MDA-MB-435; test: In vitro antiproliferative; type: cell-based; conditions: Homo sapiens, MDA-MB-435, 72 h, read-out: IC50 MDA-MB-435

T1 sequence (O15392 whole entry): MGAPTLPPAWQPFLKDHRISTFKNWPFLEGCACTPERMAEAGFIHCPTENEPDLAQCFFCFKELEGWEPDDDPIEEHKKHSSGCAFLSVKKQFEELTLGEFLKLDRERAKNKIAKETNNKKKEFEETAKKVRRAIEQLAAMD

Structure (SMILES)	IC50 [6] [µM]	other results
Oc1c(CN2CCCCC2)cc(Cn2ncc(-c3ccc(C(F)(F)F)cc3)n2)c2cccnc12 [Compound 12b, 7-(piperidin-1-ylmethyl)-5-((4-(4-(trifluoromethyl)phenyl)-2H-1,2,3-triazol-2-yl)methyl)quinolin-8-ol]		improvement of metabolic stability over MX-106 [1]: 1.7 fold; reduction of tumor weight [2]: approximately 32%
CC(C)c1ccc(COCc2cc(-c3ccccc3)c(O)c3ncccc23)cc1 [Compound 19a, 5-(((4-isopropylbenzyl)oxy)methyl)-7-phenylquinolin-8-ol]		apoptosis induction (cleaved-PARP, western blot) ([3]; 24 h): effectively induced apoptosis; survivin protein levels at 10 μM (western blot) ([3]; 24 h, 10 μM): did not show survivin downregulation; survivin protein levels (western blot) ([3]; 24 h, 1, 5 and 10 μM): selectively downregulated survivin; IC50 [4]: 2 µM
Oc1c(CN2CCCC2)cc(Cn2ncc(-c3cccc(Br)c3)n2)c2cccnc12 [Compound 7k, 5-((4-(3-bromophenyl)-2H-1,2,3-triazol-2-yl)methyl)-7-(pyrrolidin-1-ylmethyl)quinolin-8-ol]	1.7	survivin protein accumulation (western blot) [5]: reduced the accumulation of survivin protein; IC50 [4]: 1.1 µM
CC(C)c1ccc(COCc2cc(-c3ccc(C(F)(F)F)cc3)c(O)c3ncccc23)cc1 [Compound 19g, 5-(((4-isopropylbenzyl)oxy)methyl)-7-(4-(trifluoromethyl)phenyl)quinolin-8-ol]	2.6	
Oc1c(CN2CCCCC2)cc(Cn2ncc(-c3ccc(Br)cc3)n2)c2cccnc12 [Compound 12a, 5-((4-(4-bromophenyl)-2H-1,2,3-triazol-2-yl)methyl)-7-(piperidin-1-ylmethyl)quinolin-8-ol]	1.4	IC50 [4]: 1.1 µM
COCC[n+]1c2c(n(Cc3cnccn3)c1C)C(=O)c1ccccc1C2=O [YM-155]		IC50 [7]: > 1 µM; IC50 [8]: 0.0024 ± 0.0002 µM
Cc1ccc(-c2cc(COCc3ccc(C(C)C)cc3)c3cccnc3c2O)cc1 [Compound 19d, 5-(((4-isopropylbenzyl)oxy)methyl)-7-(p-tolyl)quinolin-8-ol]	1.4	
Oc1c(CN2CCCC2)cc(COC2Cc3ccccc3C2)c2cccnc12 [Compound 4c, 5-(((2,3-dihydro-1H-inden-2-yl)oxy)methyl)-7-(pyrrolidin-1-ylmethyl)quinolin-8-ol]	2.7	
Cc1ccc(-c2cnn(Cc3cc(CN4CCCC4)c(O)c4ncccc34)n2)cc1 [Compound 7d, 7-(pyrrolidin-1-ylmethyl)-5-((4-(p-tolyl)-2H-1,2,3-triazol-2-yl)methyl)quinolin-8-ol]	1.6	
Oc1c(CN2CCCC2)cc(Cn2cnc(-c3ccccc3)c2)c2cccnc12 [Compound 4a, 5-((4-phenyl-1H-imidazol-1-yl)methyl)-7-(pyrrolidin-1-ylmethyl)quinolin-8-ol]	4.2	
COc1ccc(-c2cc(COCc3ccc(C(C)C)cc3)c3cccnc3c2O)cc1 [Compound 19f, 5-(((4-isopropylbenzyl)oxy)methyl)-7-(4-methoxyphenyl)quinolin-8-ol]	1.4	
CC(C)c1ccc(COCc2cc(-c3ccnc4ccccc34)c(O)c3ncccc23)cc1 [Compound 19c, 5’-(((4-isopropylbenzyl)oxy)methyl)-[4,7’-biquinolin]-8’-ol]	1.4	
COc1ccc(-c2cnn(Cc3cc(CN4CCCC4)c(O)c4ncccc34)n2)cc1 [Compound 7g, 5-((4-(4-methoxyphenyl)-2H-1,2,3-triazol-2-yl)methyl)-7-(pyrrolidin-1-ylmethyl)quinolin-8-ol]	2	
N#Cc1ccc(-c2cnn(Cc3cc(CN4CCCC4)c(O)c4ncccc34)n2)cc1 [Compound 7h, 4-(2-((8-hydroxy-7-(pyrrolidin-1-ylmethyl)quinolin-5-yl)methyl)-2H-1,2,3-triazol-4-yl)benzonitrile]	3.3	
Oc1c(CN2CCNCC2)cc(Cn2ncc(-c3ccc(Br)cc3)n2)c2cccnc12 [Compound 14, 5-((4-(4-bromophenyl)-2H-1,2,3-triazol-2-yl)methyl)-7-(piperazin-1-ylmethyl)quinolin-8-ol]	2.6	
Oc1c(CN2CCCC2)cc(Cn2ncc(-c3ccc(Br)cc3)n2)c2cccnc12 [Compound 7a, 5-((4-(4-bromophenyl)-2H-1,2,3-triazol-2-yl)methyl)-7-(pyrrolidin-1-ylmethyl)quinolin-8-ol]	2	apoptosis induction (cleaved-PARP, western blot) ([3]; 24 h): effectively induced apoptosis; levels of other IAPs (CIAP1, XIAP, Livin; western blot) ([3]; 24 h, 1, 5 and 10 μM): minimally affected; survivin protein levels (western blot) ([3]; 24 h, 1, 5 and 10 μM): selectively suppressed survivin levels; IC50 [4]: 1.3 µM
O=[N+]([O-])c1ccc(-c2cnn(Cc3cc(CN4CCCC4)c(O)c4ncccc34)n2)cc1 [Compound 7f, 5-((4-(4-nitrophenyl)-2H-1,2,3-triazol-2-yl)methyl)-7-(pyrrolidin-1-ylmethyl)quinolin-8-ol]	2.4	
CCN(CC)Cc1cc(Cn2ncc(-c3ccc(C(F)(F)F)cc3)n2)c2cccnc2c1O [Compound 12d, 7-((diethylamino)methyl)-5-((4-(4-(trifluoromethyl)phenyl)-2H-1,2,3-triazol-2-yl)methyl)quinolin-8-ol]	3.1	
Cc1cccc(-c2cc(COCc3ccc(C(C)C)cc3)c3cccnc3c2O)c1 [Compound 19e, 5-(((4-isopropylbenzyl)oxy)methyl)-7-(m-tolyl)quinolin-8-ol]	1.6	
Oc1c(CN2CCOCC2)cc(Cn2ncc(-c3ccc(Br)cc3)n2)c2cccnc12 [Compound 12e, 5-((4-(4-bromophenyl)-2H-1,2,3-triazol-2-yl)methyl)-7-(morpholinomethyl)quinolin-8-ol]	1.7	
Oc1c(CN2CCCC2)cc(Cn2ncc(-c3ccc(C(F)(F)F)cc3)n2)c2cccnc12 [Compound 7b, 7-(pyrrolidin-1-ylmethyl)-5-((4-(4-(trifluoromethyl)phenyl)-2H-1,2,3-triazol-2-yl)methyl)quinolin-8-ol]	2.4	
CC(C)c1ccc(COCc2cc(-c3cncc4ccccc34)c(O)c3ncccc23)cc1 [Compound 19b, 5-(((4-isopropylbenzyl)oxy)methyl)-7-(isoquinolin-4-yl)quinolin-8-ol]	0.9	
Oc1c(CN2CCCC2)cc(COC2CCc3ccccc3C2)c2cccnc12 (stereo not shown) [Compound 4d, 7-(pyrrolidin-1-ylmethyl)-5-(((1,2,3,4-tetrahydronaphthalen-2-yl)oxy)methyl)quinolin-8-ol]	1.9	
CCc1ccc(-c2cnn(Cc3cc(CN4CCCC4)c(O)c4ncccc34)n2)cc1 [Compound 7e, 5-((4-(4-ethylphenyl)-2H-1,2,3-triazol-2-yl)methyl)-7-(pyrrolidin-1-ylmethyl)quinolin-8-ol]	2	
Oc1c(CN2CCCC2)cc(Cn2ncc(-c3ccccc3Br)n2)c2cccnc12 [Compound 7j, 5-((4-(2-bromophenyl)-2H-1,2,3-triazol-2-yl)methyl)-7-(pyrrolidin-1-ylmethyl)quinolin-8-ol]	1.7	
